In patent US10208071B2, “Use of agonists of formyl peptide receptor 2 for treating ocular inflammatory diseases” (Allergan, Inc., priority 2013, dated 2019):

Biological target: FPR2 (Homo sapiens (Human), UniProt P25090)
Assay: FLIPR Ca+2 response, HEK-Gα16 cells stably expressing the human FPR2 receptor (Table 4)
Assay type: cell-based
Details: for FPR2 (efficacy): efficacy in parentheses
Procedure: FLIPR: HEK-Gα16 cells stably expressing the human FPR2 receptor was utilized. Cells were plated into 384-well poly-D-lysine coated plates at a density of 18,000 cells per well one day prior to use. The growth media was DMEM medium supplemented with 10% fetal bovine serum (FBS), 1% antibiotic-antimycotic, 50 μg/ml hygromycin, and 400 μg/ml geneticin. On the day of the experiment, the cells were washed twice with Hank's Balanced Salt Solution supplemented with 20 mM HEPES (HBSS/hepes buffer). The cells were then dye loaded with 2 μM Fluo-4 diluted in the HBSS/Hepes buffer and incubated at 37° C. for 40 minutes. Extracellular dye was removed by washing the cell plates four times prior to placing the plates in the FLIPR (Fluorometric Imaging Plate Reader, Molecular Devices). Ligands were diluted in HBSS/Hepes buffer and prepared in 384-well microplates. Data for Ca^+2 responses were obtained in relative fluorescence units.

FPR2, sequence (P25090 whole entry): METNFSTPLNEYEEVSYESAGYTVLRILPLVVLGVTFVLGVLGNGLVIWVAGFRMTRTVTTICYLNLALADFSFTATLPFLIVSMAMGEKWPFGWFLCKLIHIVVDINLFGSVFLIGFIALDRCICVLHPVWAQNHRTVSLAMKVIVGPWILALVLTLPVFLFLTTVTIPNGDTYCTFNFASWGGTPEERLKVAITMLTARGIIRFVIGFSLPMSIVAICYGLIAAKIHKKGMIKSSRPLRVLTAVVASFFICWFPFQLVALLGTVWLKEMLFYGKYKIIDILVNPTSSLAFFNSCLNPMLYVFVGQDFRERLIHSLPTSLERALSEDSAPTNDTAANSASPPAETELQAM

Structure (SMILES) | FPR2 (efficacy) | EC50
O=C(O)CNC(=O)[C@H](Cc1ccccc1)NC(=O)Nc1ccc(Br)cc1 [Compound 55, {[(2S)-2-{[(4-bromophenyl)carbamoyl]amino}-3-phenylpropanoyl]amino}acetic acid] | nM (0.99) | –
CCC[C@H](NC(=O)Nc1ccc(Br)cc1F)C(=O)NCC(N)=O [Compound 81, (2S)-N-(2-amino-2-oxoethyl)-2-{[(4-bromo-2-fluorophenyl)carbamoyl]amino} pentanamide] | nM (0.96) | –
CCC[C@H](NC(=O)Nc1ccc(Br)cc1)C(=O)NCC(N)=O [Compound 79, (2S)-N-(2-amino-2-oxoethyl)-2-{[(4-bromophenyl)carbamoyl]amino} pentanamide] | nM (0.97) | –
O=C(Nc1ccc(Br)cc1)[C@@H]1C2CCC([C@@H]1C(=O)O)C21CC1 (stereo partly drawn) [Compound 44, (+) (2S,3R)-3-[(4-bromophenyl)carbamoyl]spiro[bicyclo[2.2.1]heptane-7,1′-cyclopropane]-2-carboxylic acid] | nM (0.98) | –
CC(C)C[C@H](NC(=O)Nc1ccc(Br)cc1)C(=O)N[C@H](C(=O)O)c1ccccc1 [Compound 103, (2S)-{[(2S)-2-{[(4-bromophenyl)carbamoyl]amino}-4-methylpentanoyl]amino} (phenyl)ethanoic acid] | nM (1.0) | –
CC(C)C[C@H](NC(=O)Nc1ccc(Br)cc1)C(=O)NCCO [Compound 75, (2S)-2-{[(4-bromophenyl)carbamoyl]amino}-N-(2-hydroxyethyl)-4-methylpentanamide] | nM (0.76) | 13.5 nM
O=C(O)CCNC(=O)[C@H](Cc1ccccc1)NC(=O)Nc1ccc(Br)cc1 [Compound 56, 3-{[(2S)-2-{[(4-bromophenyl)carbamoyl]amino}-3-phenylpropanoyl]amino} propanoic acid] | nM (0.98) | –
CSc1ccc(NC(=O)Nc2ccc3c(c2)C(=O)N(CCc2c[nH]cn2)C(c2ccc(Cl)nc2)C3)cc1 (centres unmarked) [Compound 28, 1-{3-(6-chloropyridin-3-yl)-2-[2-(1H-imidazol-4-yl)ethyl]-1-oxo-1,2,3,4-tetrahydroisoquinolin-7-yl}-3-[4-(methylsulfanyl)phenyl]urea] | nM (0.89) | –
O=C(O)C1C(C(=O)Nc2ccc(Br)cc2)C2C=CC1C21CC1 (centres unmarked) [Compound 12, 3-[(4-bromophenyl)carbamoyl] spiro[bicyclo[2.2.1]heptane-7,1′-cyclopropane]-5-ene-2-carboxylic acid] | nM (0.97) | 4 nM
Cc1ccc(CCC2(C)NC(=O)N(NC(=O)Nc3ccc(Br)cc3)C2=O)o1 (centres unmarked) [Compound 97, 1-(4-bromophenyl)-3-{4-methyl-4-[2-(5-methylfuran-2-yl)ethyl]-2,5-dioxoimidazolidin-1-yl}urea] | nM (0.95) | –
CC(C)C[C@H](NC(=O)Nc1ccc(Br)cc1)C(=O)N[C@H](C(=O)O)C(C)C [Compound 91, (2S)-2-{[(2S)-2-{[(4-bromophenyl)carbamoyl]amino}-4-methylpentanoyl]amino}-3-methylbutanoic acid] | nM (0.97) | 1.7 nM
CCC[C@H](NC(=O)Nc1ccc(Br)cc1)C(=O)O [Compound 70, (2S)-2-{[(4-bromophenyl)carbamoyl]amino} pentanoic acid] | nM (1.0) | 7.1 nM
CSc1ccc(NC(=O)Nc2ccc3c(c2)C(=O)N(CCCN)[C@@H](c2ccc(C#N)cc2)C3)cc1 [Compound 36, (+)1-[(3R)-2-(3-aminopropyl)-3-(4-cyanophenyl)-1-oxo-1,2,3,4-tetrahydroisoquinolin-7-yl]-3-[4-(methylsulfanyl)phenyl]urea] | nM (0.97) | 3.3 nM
CC1(C)C2CCC1C(C(=O)Nc1ccc(I)cc1)C2C(=O)O (centres unmarked) [Compound 22, 3-[(4-iodophenyl)carbamoyl]-7,7-dimethylbicyclo[2.2.1]heptane-2-carboxylic acid] | nM (0.97) | –
O=C(Nc1ccc(I)cc1)N[C@@H](Cc1ccccc1)C(=O)O [Compound 51, (2S)-2-{[(4-iodophenyl)carbamoyl]amino}-3-phenylpropanoic acid] | nM (1.0) | –
CCC1(CCc2ccccc2C(=O)OC)NC(=O)N(NC(=O)Nc2ccc(Br)cc2)C1=O (centres unmarked) [Compound 141, methyl 2-[2-(1-{[(4-bromophenyl)carbamoyl]amino}-4-ethyl-2,5-dioxoimidazolidin-4-yl)ethyl]benzoate] | nM (0.92) | 10.3 nM

Structure (SMILES) | FPR2 (efficacy) | EC50
O=C(O)CNC(=O)C(Cc1c[nH]c2ccccc12)NC(=O)Nc1ccc(Br)cc1 (centres unmarked) [Compound 150, {[2-{[(4-bromophenyl)carbamoyl]amino}-3-(1H-indol-3-yl)propanoyl]amino}acetic acid] | nM (0.98) | 1.4 nM
CSc1ccc(NC(=O)Nc2ccc3c(c2)C(=O)N(CCCN)C(c2ccc(C#N)cc2)C3)cc1 (centres unmarked) [Compound 16, 1-[2-(3-aminopropyl)-3-(4-cyanophenyl)-1-oxo-1,2,3,4-tetrahydroisoquinolin-7-yl]-3-[4-(methylsulfanyl)phenyl]urea] | nM (0.70) | –
C[S+]([O-])c1ccc(NC(=O)Nc2ccc3c(c2)C(=O)N(CCCNC(=O)OC(C)(C)C)[C@@H](c2ccc(C#N)cc2)C3)cc1 (stereo partly drawn) [Compound 40, (+) tert-butyl {3-[(3R)-3-(4-cyanophenyl)-7-({[4-(methylsulfinyl)phenyl]carbamoyl}amino)-1-oxo-3,4-dihydroisoquinolin-2(1H)-yl]propyl}carbamate] | nM (0.91) | 103 nM
CC1(CCc2ccc(F)cc2)NC(=O)N(NC(=O)Nc2ccc(Br)cc2)C1=O (centres unmarked) [Compound 82, 1-(4-bromophenyl)-3-{4-[2-(4-fluorophenyl)ethyl]-4-methyl-2,5-dioxoimidazolidin-1-yl}urea] | nM (1.0) | 16.3 nM
CC(C)=C1C2C=CC1C(C(=O)Nc1ccc(I)cc1)C2C(=O)O (centres unmarked) [Compound 20, 3-[(4-iodophenyl)carbamoyl]-7-(propan-2-ylidene)bicyclo[2.2.1]hept-5-ene-2-carboxylic acid] | nM (0.94) | –
CCC[C@H](NC(=O)Nc1ccc(Br)cc1)C(=O)NCC(=O)OC(C)C [Compound 73, propan-2-yl {[(2S)-2-{[(4-bromophenyl)carbamoyl]amino}pentanoyl]amino}acetate] | nM (1.0) | 14.5 nM
CC[C@H](C)[C@H](NC(=O)Nc1ccc(Br)cc1)C(=O)NCC(N)=O [Compound 60, (2S,3S)-N-(2-amino-2-oxoethyl)-2-{[(4-bromophenyl)carbamoyl]amino}-3-methylpentanamide] | nM (0.91) | –
CC(C)C[C@H](NC(=O)Nc1ccc(I)cc1)C(=O)O [Compound 121, (2S)-2-{[(4-iodophenyl)carbamoyl]amino}-4-methylpentanoic acid] | nM (0.93) | 4 nM
CC1(CCc2ccc(O)cc2)NC(=O)N(NC(=O)Nc2ccc(Br)cc2F)C1=O (centres unmarked) [Compound 89, 1-(4-bromo-2-fluorophenyl)-3-{4-[2-(4-hydroxyphenyl)ethyl]-4-methyl-2,5-dioxoimidazolidin-1-yl}urea] | nM (0.85) | –
NC(=O)C1C(C(=O)Nc2ccc(I)cc2)C2CCC1C21CC1 (centres unmarked) [Compound 38, N-(4-iodophenyl) spiro[bicyclo[2.2.1]heptane-7,1′-cyclopropane]-2,3-dicarboxamide] | nM (0.95) | 1.9 nM
CSc1ccc(NC(=O)N[C@@H](CC(C)C)C(=O)NCC(=O)O)cc1 [Compound 130, {[(2S)-4-methyl-2-({[4-(methylsulfanyl)phenyl]carbamoyl}amino)pentanoyl]amino} acetic acid] | nM (1.0) | 3 nM
O=C(O)C1C(C(=O)Nc2ccc(I)cc2)C2C=CC1C21CC1 (centres unmarked) [Compound 11, 3-[(4-iodophenyl)carbamoyl] spiro[bicyclo[2.2.1]heptane-7,1′-cyclopropane]-5-ene-2-carboxylic acid] | nM (1.00) | 1.6 nM
CCNC(=O)C1C(C(=O)Nc2ccc(Br)cc2)C2CCC1C21CC1 (centres unmarked) [Compound 47, N-(4-bromophenyl)-N′-ethylspiro[bicyclo[2.2.1]heptane-7,1′-cyclopropane]-2,3-dicarboxamide] | nM (1.0) | 9.3 nM
CC1(CCc2cccs2)NC(=O)N(NC(=O)Nc2ccc(Br)cc2)C1=O (centres unmarked) [Compound 88, 1-(4-bromophenyl)-3-{4-methyl-2,5-dioxo-4-[2-(thiophen-2-yl)ethyl]imidazolidin-1-yl}urea] | nM (0.94) | –
CCC[C@H](NC(=O)Nc1ccc(Br)cc1)C(=O)NCP(=O)(OCC)OCC [Compound 117, diethyl ({[(2S)-2-{[(4-bromophenyl)carbamoyl]amino}pentanoyl]amino}methyl) phosphonate] | nM (1.0) | 0.27 nM
